In ChEMBL document CHEMBL5291721, “A preclinical secondary pharmacology resource illuminates target-adverse drug reaction associations of marketed drugs” (Nat Commun, 2023) one finds AC50 data, which are given here for seven compounds.

Targets include Substance-P receptor (Homo sapiens, UniProt P25103); D(1A) dopamine receptor (Homo sapiens, UniProt P21728); D(3) dopamine receptor (Homo sapiens, UniProt P35462).
Assay [1] deals with T1, Muscarinic acetylcholine receptor M1 (Homo sapiens, UniProt P11229).
T1 sequence (P11229 whole entry): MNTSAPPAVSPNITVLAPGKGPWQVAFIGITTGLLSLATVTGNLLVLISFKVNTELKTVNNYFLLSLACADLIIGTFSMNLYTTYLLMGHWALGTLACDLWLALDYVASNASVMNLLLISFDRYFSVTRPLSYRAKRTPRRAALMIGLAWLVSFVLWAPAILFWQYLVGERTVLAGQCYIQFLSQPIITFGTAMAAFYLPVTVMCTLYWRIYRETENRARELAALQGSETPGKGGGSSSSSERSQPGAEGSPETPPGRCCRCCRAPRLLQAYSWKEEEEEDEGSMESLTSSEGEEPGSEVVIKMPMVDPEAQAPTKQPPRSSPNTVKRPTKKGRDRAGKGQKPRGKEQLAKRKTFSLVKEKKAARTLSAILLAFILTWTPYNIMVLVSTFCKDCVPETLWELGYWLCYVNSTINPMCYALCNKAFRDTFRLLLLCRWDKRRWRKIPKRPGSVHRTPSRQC
The format is functional, cell-based.

The target of another assay is Cannabinoid receptor 1 (Homo sapiens, UniProt P21554). The format is functional.
The target of another assay is T2, D(4) dopamine receptor (Homo sapiens, UniProt P21917).
T2 sequence (P21917 whole entry): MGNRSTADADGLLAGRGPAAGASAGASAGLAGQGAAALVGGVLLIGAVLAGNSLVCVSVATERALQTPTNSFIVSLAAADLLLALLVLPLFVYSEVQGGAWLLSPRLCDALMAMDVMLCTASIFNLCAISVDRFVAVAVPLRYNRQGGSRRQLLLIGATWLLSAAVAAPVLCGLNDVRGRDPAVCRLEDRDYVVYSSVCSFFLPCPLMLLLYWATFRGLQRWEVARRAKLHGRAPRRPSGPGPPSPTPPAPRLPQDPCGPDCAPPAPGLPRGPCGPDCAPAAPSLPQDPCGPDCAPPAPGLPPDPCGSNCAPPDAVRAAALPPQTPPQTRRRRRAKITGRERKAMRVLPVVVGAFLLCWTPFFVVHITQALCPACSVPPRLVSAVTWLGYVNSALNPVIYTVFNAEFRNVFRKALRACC

Assay [2] addresses Gamma-aminobutyric acid type B receptor subunit 1 (Homo sapiens, UniProt Q9UBS5).
In assay [3] the target is 5-hydroxytryptamine receptor 6 (Homo sapiens, UniProt P50406).
For assay [4], the target named is 5-hydroxytryptamine receptor 7 (Homo sapiens, UniProt P34969).
The target in assay [5] is Neurotensin receptor type 1 (Homo sapiens, UniProt P30989).
Neurotensin receptor type 1, sequence (P30989 whole entry): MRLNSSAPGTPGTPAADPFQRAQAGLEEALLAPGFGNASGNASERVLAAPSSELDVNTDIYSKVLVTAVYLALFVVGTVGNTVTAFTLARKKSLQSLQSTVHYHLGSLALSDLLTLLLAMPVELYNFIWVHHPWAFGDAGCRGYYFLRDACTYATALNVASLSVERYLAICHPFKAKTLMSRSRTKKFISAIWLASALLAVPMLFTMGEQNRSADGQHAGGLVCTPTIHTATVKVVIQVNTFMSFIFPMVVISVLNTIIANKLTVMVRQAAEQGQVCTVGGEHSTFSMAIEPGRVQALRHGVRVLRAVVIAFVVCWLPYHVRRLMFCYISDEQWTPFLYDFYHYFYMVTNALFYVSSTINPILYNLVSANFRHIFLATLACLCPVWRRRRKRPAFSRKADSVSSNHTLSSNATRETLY
Assay [6] deals with Sodium channel protein type 5 subunit alpha (Homo sapiens, UniProt Q14524). The format is functional, cell-based.
Assay [7] addresses T3, Alpha-1A adrenergic receptor (Homo sapiens, UniProt P35348).
T3 sequence (P35348 whole entry): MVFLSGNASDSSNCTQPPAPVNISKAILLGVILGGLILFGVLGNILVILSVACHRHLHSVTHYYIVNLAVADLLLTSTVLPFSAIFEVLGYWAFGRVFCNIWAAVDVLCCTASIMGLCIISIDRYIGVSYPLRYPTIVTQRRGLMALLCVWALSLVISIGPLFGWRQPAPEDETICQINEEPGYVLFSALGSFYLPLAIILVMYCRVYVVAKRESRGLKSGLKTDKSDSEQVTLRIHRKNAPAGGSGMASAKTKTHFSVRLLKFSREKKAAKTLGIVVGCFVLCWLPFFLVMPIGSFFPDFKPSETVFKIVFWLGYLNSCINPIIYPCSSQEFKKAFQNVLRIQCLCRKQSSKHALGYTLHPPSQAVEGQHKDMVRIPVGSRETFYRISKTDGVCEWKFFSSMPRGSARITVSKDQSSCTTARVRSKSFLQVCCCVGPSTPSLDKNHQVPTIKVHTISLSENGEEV

In assay [8] the target is T3, Alpha-1A adrenergic receptor. It counts as functional, cell-based.
The target is the same in assay [9]. The format is functional, cell-based. The source holds these as a separate data set.
Assay [10] deals with T1, Muscarinic acetylcholine receptor M1. The format is functional, cell-based. The source holds these as a separate data set.
Assay [11] addresses Gamma-aminobutyric acid receptor subunit alpha-1 (Rattus norvegicus, UniProt P62813).
Assay [12] has as its target 5-hydroxytryptamine receptor 2B (Homo sapiens, UniProt P41595). The format is functional, cell-based.
Assay [13] addresses Vascular endothelial growth factor receptor 2 (Homo sapiens, UniProt P35968). The format is functional.
Assay [14] has as its target Sodium-dependent serotonin transporter (Homo sapiens, UniProt P31645).
Assay [15] deals with T4, Peroxisome proliferator-activated receptor gamma (Homo sapiens, UniProt P37231).
T4 sequence (P37231 whole entry): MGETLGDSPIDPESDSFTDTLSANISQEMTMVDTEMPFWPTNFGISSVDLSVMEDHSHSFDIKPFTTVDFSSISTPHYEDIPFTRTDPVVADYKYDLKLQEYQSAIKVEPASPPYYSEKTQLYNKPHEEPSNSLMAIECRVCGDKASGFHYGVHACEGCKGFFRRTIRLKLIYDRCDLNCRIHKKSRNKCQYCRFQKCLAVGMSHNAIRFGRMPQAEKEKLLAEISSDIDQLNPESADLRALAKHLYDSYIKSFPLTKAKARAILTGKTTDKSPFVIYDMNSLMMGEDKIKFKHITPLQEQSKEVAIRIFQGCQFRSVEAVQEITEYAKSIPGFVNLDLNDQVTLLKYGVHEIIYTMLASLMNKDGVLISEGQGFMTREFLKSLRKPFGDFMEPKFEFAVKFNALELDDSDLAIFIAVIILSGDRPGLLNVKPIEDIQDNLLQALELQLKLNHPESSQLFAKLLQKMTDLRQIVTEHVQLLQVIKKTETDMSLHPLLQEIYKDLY
It counts as functional.

Assay [16] addresses Gamma-aminobutyric acid receptor subunit alpha-1/alpha-2/beta-2/gamma-2 (Homo sapiens, UniProt P14867+P18507+P47869+P47870). The format is protein-complex assay.

The structures appear in SMILES notation. Some results are limits rather than exact numbers.
Further: assay procedure not described here.

5-hydroxytryptamine receptor 2B, sequence (P41595 whole entry): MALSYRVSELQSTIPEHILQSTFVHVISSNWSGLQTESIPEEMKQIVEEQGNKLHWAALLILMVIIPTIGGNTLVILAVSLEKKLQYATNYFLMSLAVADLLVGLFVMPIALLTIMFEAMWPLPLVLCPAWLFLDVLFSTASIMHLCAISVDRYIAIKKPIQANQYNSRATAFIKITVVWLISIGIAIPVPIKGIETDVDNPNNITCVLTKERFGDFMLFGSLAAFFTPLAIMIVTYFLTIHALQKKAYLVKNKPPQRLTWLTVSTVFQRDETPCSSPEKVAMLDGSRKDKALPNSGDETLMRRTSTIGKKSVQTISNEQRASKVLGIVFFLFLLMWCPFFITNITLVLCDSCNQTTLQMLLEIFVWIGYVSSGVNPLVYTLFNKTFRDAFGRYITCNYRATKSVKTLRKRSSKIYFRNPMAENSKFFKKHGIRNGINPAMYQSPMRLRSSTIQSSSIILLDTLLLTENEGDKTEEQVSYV
D(3) dopamine receptor, sequence (P35462 whole entry): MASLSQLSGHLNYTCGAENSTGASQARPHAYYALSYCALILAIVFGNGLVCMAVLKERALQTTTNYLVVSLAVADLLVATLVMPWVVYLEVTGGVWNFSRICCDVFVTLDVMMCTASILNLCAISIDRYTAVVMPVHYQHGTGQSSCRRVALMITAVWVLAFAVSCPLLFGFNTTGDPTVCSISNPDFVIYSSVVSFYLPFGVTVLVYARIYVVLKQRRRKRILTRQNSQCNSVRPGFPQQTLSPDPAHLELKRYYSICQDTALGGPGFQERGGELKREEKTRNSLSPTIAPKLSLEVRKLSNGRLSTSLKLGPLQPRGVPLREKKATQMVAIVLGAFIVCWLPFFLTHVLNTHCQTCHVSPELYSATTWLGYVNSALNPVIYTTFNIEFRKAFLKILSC
D(1A) dopamine receptor, sequence (P21728 whole entry): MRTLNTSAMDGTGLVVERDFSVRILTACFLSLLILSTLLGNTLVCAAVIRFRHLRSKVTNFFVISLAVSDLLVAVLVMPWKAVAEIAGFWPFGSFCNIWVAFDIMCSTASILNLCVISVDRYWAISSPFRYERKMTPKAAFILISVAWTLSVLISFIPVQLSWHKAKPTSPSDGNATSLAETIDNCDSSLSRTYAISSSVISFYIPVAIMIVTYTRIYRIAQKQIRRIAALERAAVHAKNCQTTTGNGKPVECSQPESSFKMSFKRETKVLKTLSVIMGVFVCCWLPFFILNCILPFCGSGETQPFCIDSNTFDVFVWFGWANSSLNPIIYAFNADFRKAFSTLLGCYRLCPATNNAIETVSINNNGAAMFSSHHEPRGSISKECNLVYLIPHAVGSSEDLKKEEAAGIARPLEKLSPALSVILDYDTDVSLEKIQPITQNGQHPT
Vascular endothelial growth factor receptor 2, sequence (P35968 whole entry): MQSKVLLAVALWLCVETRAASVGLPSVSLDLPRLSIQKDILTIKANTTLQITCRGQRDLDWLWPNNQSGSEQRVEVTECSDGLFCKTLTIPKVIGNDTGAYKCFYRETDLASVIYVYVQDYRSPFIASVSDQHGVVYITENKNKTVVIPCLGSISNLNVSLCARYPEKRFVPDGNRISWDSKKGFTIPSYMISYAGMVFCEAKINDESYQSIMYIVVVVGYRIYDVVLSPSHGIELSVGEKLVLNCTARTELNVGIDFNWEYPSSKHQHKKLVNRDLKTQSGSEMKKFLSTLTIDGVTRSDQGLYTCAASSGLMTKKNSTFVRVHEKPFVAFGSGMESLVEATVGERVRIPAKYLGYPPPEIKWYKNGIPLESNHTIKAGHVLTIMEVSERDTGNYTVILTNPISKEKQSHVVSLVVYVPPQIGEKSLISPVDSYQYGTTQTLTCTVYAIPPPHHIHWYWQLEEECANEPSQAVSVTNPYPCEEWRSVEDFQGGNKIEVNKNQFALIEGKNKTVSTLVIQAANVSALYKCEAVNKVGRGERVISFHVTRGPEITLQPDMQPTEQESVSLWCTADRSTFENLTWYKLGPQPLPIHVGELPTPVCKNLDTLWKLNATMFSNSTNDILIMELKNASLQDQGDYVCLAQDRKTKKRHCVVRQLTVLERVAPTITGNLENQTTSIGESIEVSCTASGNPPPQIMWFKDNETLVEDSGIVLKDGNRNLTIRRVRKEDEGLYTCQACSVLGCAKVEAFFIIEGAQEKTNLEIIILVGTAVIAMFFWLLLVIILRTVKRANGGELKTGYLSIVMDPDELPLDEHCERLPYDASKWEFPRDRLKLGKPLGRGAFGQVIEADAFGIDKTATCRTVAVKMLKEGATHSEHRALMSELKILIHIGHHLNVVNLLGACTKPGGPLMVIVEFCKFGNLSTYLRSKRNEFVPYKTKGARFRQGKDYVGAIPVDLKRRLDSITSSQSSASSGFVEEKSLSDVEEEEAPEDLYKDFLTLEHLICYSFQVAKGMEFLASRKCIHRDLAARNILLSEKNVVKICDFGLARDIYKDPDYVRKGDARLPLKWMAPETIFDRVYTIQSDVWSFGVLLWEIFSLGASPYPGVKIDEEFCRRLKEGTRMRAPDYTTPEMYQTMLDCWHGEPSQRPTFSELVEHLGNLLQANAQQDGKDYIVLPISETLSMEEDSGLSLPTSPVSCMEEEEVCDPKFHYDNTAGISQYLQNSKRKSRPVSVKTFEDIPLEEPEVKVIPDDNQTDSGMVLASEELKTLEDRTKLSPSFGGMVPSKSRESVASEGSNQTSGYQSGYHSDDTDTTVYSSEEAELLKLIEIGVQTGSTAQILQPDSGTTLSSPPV
Gamma-aminobutyric acid type B receptor subunit 1, sequence (Q9UBS5 whole entry): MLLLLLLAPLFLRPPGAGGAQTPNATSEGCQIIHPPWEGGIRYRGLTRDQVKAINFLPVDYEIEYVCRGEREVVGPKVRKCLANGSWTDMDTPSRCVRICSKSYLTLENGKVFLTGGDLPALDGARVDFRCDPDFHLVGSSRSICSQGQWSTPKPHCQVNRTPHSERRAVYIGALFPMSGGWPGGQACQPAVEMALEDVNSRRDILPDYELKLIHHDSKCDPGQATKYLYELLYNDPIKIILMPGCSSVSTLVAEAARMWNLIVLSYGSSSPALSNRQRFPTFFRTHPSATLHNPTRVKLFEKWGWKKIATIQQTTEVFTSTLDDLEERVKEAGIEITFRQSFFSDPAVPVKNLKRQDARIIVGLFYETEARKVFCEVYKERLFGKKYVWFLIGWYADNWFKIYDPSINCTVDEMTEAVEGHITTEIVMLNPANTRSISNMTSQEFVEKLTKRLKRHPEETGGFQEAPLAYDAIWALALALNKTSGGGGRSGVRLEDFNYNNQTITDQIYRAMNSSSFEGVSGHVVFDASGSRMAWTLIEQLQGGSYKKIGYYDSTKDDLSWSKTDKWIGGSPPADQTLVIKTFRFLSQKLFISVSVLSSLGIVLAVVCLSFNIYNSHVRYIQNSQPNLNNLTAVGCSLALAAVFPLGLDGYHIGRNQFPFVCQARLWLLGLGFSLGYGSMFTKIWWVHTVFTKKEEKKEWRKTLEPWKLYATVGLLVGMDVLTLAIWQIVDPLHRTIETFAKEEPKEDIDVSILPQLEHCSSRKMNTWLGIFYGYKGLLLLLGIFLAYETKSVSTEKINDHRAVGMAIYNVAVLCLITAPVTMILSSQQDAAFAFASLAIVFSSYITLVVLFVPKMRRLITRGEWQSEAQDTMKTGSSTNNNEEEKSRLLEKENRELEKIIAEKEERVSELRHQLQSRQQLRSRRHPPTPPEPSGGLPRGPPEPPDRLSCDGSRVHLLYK
Sodium-dependent serotonin transporter, sequence (P31645 whole entry): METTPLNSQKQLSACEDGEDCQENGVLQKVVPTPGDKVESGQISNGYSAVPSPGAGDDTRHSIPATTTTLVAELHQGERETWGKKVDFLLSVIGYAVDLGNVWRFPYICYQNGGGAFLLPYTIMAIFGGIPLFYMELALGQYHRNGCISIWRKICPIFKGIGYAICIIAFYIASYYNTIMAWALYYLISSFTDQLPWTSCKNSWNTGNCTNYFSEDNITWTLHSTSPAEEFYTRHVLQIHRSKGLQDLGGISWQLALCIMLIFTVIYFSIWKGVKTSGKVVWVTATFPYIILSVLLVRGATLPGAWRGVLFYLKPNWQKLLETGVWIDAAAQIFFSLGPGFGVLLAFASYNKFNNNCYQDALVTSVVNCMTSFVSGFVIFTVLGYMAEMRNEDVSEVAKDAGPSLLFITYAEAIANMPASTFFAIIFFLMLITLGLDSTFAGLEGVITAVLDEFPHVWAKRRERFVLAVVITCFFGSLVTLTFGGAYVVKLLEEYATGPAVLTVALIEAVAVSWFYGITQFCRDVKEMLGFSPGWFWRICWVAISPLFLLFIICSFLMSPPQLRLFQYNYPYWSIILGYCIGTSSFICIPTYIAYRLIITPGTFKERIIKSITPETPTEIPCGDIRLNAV

As for `C[N@+]1(CCF)[C@@H]2CC[C@H]1C[C@@H](OC(=O)C(O)(c1ccccc1)c1ccccc1)C2`, half-maximal activity in assay [1] (AC50) was put at 0.0005 µM.
As for `Cn1c(=O)cc(N2CCC[C@@H](N)C2)n(Cc2ccccc2C#N)c1=O` [ALOGLIPTIN], the AC50 – broadly, the concentration giving half of the maximal activity seen – at Cannabinoid receptor 1 was > 10 µM; at D(4) dopamine receptor it was > 10 µM; in assay [2], > 10 µM; in assay [3], > 10 µM; in assay [4], > 10 µM; in assay [5], > 30 µM. The half-maximal activity concentration (AC50) was > 150 µM in assay [6], > 10 µM at Substance-P receptor and > 10 µM in assay [7].
As to `Nc1c2ccccc2nc2ccccc12` [AMINACRINE], the AC50 in assay [8] was > 30 µM; in assay [9] it was 9.77 µM; in assay [10], > 30 µM; on D(1A) dopamine receptor, 11.7 µM; on D(3) dopamine receptor it was > 30 µM; in assay [11], > 30 µM. Moreover, the concentration at half-maximal activity (AC50) in assay [12], in assay [13] and in assay [14] was > 30 µM in each case.
As for `CCN1CCCC1CNC(=O)c1cc(S(=O)(=O)CC)c(N)cc1OC` (centres undefined) [AMISULPRIDE], the concentration at half-maximal activity (AC50) in assay [15] is > 30 µM.
Regarding `Oc1ccc2c(c1)[C@@]13CCCC[C@@]1(O)[C@@H](C2)N(CC1CCC1)CC3` [BUTORPHANOL], the AC50 in assay [15] is > 30 µM.
As for `CC(=O)OCC(=O)[C@@]1(O)[C@H](C)C[C@H]2[C@@H]3CCC4=CC(=O)C=C[C@]4(C)[C@@]3(F)[C@@H](O)C[C@@]21C` [DEXAMETHASONE ACETATE], the concentration at half-maximal activity (AC50) in [5] is > 30 µM.
On to `O=C(O)CCCCC1CCSS1` (stereo not drawn) [LIPOIC ACID, ALPHA], for which the AC50 (in assay [8]; in [9]; at D(1A) dopamine receptor; on D(3) dopamine receptor; in [16]; in assay [12]) was > 30 µM each time. For the same compound, the half-maximal activity concentration (AC50) in assay [13] was > 30 µM.
